In article PMC9945734 (BMC Medicine, 2023):
Values joined by “and” are separate entries in the source; they are usually repeats but may differ in a detail not shown here. Equal values may be shown once.

Tested on: PC-3-KQ and PC-3-KR cells
Assay: RNA-sequencing and differential gene expression
Format: cell-based, human
Set-up: CEP19 tpm_KQ_NTZ / CCNA1 tpm_KQ_NTZ / BTN3A3 tpm_KQ_NTZ / CAPSL tpm_KQ_NTZ / CELF3 tpm_KQ_NTZ / C5orf63 tpm_KQ_NTZ / tpm MSMP / tpm MYH7B / tpm CACNG8 / CNTNAP3B tpm_KQ_NTZ / IL21R tpm_KQ_NTZ / CYP8B1 tpm_KQ_NTZ / C2orf78 tpm_KQ_NTZ / CALB1 tpm_KQ_NTZ / COL4A3 tpm_KQ_NTZ / CFB tpm_KQ_NTZ / PFKFB1 tpm_KQ_NTZ / BTBD11 tpm_KQ_NTZ: scale not given here
Details: RNA-Seq
[1] = PC-3-KQ cells with NTZ, replicates NTZ1-3, listed as NTZ

CC(=O)Oc1ccccc1C(=O)Nc1ncc([N+](=O)[O-])s1 [Nitazoxanide]
tpm DMPK [1]: 0.419 and 0.3493 and 0.1665 | tpm DRP2 [1]: -0.6676 and -1.3 and -0.607 | tpm ECM2 [1]: -0.5146 (2×) and 0.2506 | tpm FAM186B [1]: -0.5789 and -0.1828 and -0.4779 | tpm FER1L6 [1]: -0.0478 and 0.008832 and -0.09563 | tpm FLT1 [1]: 0.161 and -0.1482 and -0.7906 | tpm FSD2 [1]: -0.9288 and -1.378 and -0.8049 | tpm FTH1 [1]: 1.05 and 1.051 and 1.128 | tpm FXYD3 [1]: -0.3733 and -0.2655 and -0.4971 | tpm GALNT12 [1]: 0.1641 and 0.2605 and 0.1597 | tpm GRAMD2A [1]: -1.217 and -0.8334 and -0.5772 | tpm HID1 [1]: 1.101 and 0.7299 and 0.9267 | tpm HPSE2 [1]: -0.4281 and -0.1645 and -0.06191 | tpm IDO1 [1]: -0.05198 and -0.1635 and 0.07694 | tpm IGDCC4 [1]: 1.025 and 0.5822 and 0.3088 | tpm INHBA [1]: -0.4046 and -0.5562 and -0.8145 | tpm INHBB [1]: 0.08661 and -0.02356 and -0.07924 | tpm KIAA1755 [1]: -0.4724 and -0.3852 and -0.1722 | tpm KLHDC7B [1]: 1.013 and 1.073 and 1.158 | tpm LOC105374299 [1]: 0.8275 and 1.276 and 1.486 | tpm LOC107987158 [1]: 0.1622 and -0.3121 and -1.443 | tpm LONRF2 [1]: 0.1017 (2×) and -0.7266 | tpm MAP7D3 [1]: 0.1661 and 0.1563 and -0.001507 | tpm MEF2C [1]: 0.3074 (2×) and -0.8164 | tpm MEOX1 [1]: -0.388 and -0.5893 and -0.8851 | tpm MINAR1 [1]: 1.487 and 0.4714 and 0.64 | tpm MSMP [1]: -0.1946 and -0.01672 and -0.03466 | tpm MUC4 [1]: 0.5142 and 1.164 and 1.212 | tpm MYH7B [1]: -0.4262 and -0.2568 and 0.1543 | tpm PDGFRL [1]: 0.618 and 0.4346 and 0.4486 | tpm PLEKHA7 [1]: -0.3096 and -0.2197 and -0.3271 | tpm PLEKHG1 [1]: -0.07347 and -0.05792 and -0.2 | tpm PRRT4 [1]: 0.01578 and 0.2412 and 0.04865 | tpm RORC [1]: 0.6069 and 0.189 and 1.342 | tpm RP1L1 [1]: -0.07855 and -0.3562 and -1.072 | tpm RPP25 [1]: 0.2387 and 0.2331 and 0.2609 | tpm SAT1 [1]: 0.7632 and 0.7179 and 0.7837 | tpm SAXO2 [1]: -1.3 and 0.5697 and 0.468 | tpm SERPINA5 [1]: 0.2889 and 0.09986 and -0.2457 | tpm SERPINB3 [1]: -1.23 and -0.7997 and -0.9984 | tpm SERPINF2 [1]: 0.3503 and 0.1655 and 0.444 | tpm SGK3 [1]: -0.2978 and 0.6129 and 0.5003 | tpm SLC22A4 [1]: -0.6184 and -1.014 | tpm SLFN11 [1]: -0.5865 and -0.5524 (2×) | tpm SRPX [1]: 0.5121 and 0.498 and 0.6168 | tpm STARD4 [1]: 0.9661 and 0.7143 | tpm SVEP1 [1]: -0.8267 and -1.268 and -1.176 | tpm TBX2 [1]: 0.468 and 0.2574 and 0.908 | tpm TCN1 [1]: 0.4136 and 0.08826 and 0.5034 | tpm TNF [1]: 0.3176 and 0.1804 | tpm TNFRSF6B [1]: -0.5827 and 0.1186 and -0.2431 | tpm TNFSF14 [1]: 1.093 and 1.162 and 1.079 | tpm TRIM31 [1]: -0.6801 and -0.02951 and -0.5211 | tpm UGT2B7 [1]: -0.4066 and -0.3815 and -0.4168 | tpm XKRX [1]: -0.4846 and 0.05471 and 0.3317 | tpm ZNF28 [1]: 0.116 and -1.142 and -0.2155 | tpm ZNF302 [1]: -0.4799 and 0.1803 and -0.08669 | AADACL3 Change (KQ-Control vs KQ-NTZ) (PC-3-KQ cells): DOWN | AADACL3 logFC (KQ-Control vs KQ-NTZ) (PC-3-KQ cells): -1.5511 | ABCA1 Change (KQ-Control vs KQ-NTZ) (PC-3-KQ cells): DOWN | ABCA1 logFC (KQ-Control vs KQ-NTZ) (PC-3-KQ cells): -1.1023 | ABCB4 Change (KQ-Control vs KQ-NTZ) (PC-3-KQ cells): DOWN | ABCB4 logFC (KQ-Control vs KQ-NTZ) (PC-3-KQ cells): -1.0876 | ADORA1 Change (KQ-Control vs KQ-NTZ) (PC-3-KQ cells): DOWN | ADORA1 logFC (KQ-Control vs KQ-NTZ) (PC-3-KQ cells): -0.6297 | ANKRD36C Change (KQ-Control vs KQ-NTZ) (PC-3-KQ cells): DOWN | ANKRD36C logFC (KQ-Control vs KQ-NTZ) (PC-3-KQ cells): -0.823 | ANKRD63 Change (KQ-Control vs KQ-NTZ) (PC-3-KQ cells): DOWN | ANKRD63 logFC (KQ-Control vs KQ-NTZ) (PC-3-KQ cells): -0.8191 | ANXA8L1 Change (KQ-Control vs KQ-NTZ) (PC-3-KQ cells): DOWN | ANXA8L1 logFC (KQ-Control vs KQ-NTZ) (PC-3-KQ cells): -1.2337 | APLN Change (KQ-Control vs KQ-NTZ) (PC-3-KQ cells): DOWN | APLN logFC (KQ-Control vs KQ-NTZ) (PC-3-KQ cells): -0.8669 | ARL10 Change (KQ-Control vs KQ-NTZ) (PC-3-KQ cells): DOWN | ARL10 logFC (KQ-Control vs KQ-NTZ) (PC-3-KQ cells): -0.6715 | ARX logFC (KQ-Control vs KQ-NTZ) (PC-3-KQ cells): 0.8688 | ASB2 Change (KQ-Control vs KQ-NTZ) (PC-3-KQ cells): DOWN | ASB2 logFC (KQ-Control vs KQ-NTZ) (PC-3-KQ cells): -1.5518 | ASRGL1 Change (KQ-Control vs KQ-NTZ) (PC-3-KQ cells): DOWN | ASRGL1 logFC (KQ-Control vs KQ-NTZ) (PC-3-KQ cells): -0.6209
